Test [1] addresses T1, PGI2 receptor (Homo sapiens, UniProt P43119).
T1 construct: human blood platelet membrane fraction (0.3 mg protein) was added; from tissue; host or cells: human blood platelets (membrane fraction)
The experiment in a line: Inhibitory activity on binding of ^3 H-iloprost to PGI2 receptor on human blood platelet membrane fraction. The note with it: 10 nM [^3H]-iloprost, human blood platelet membrane fraction (0.3 mg protein), 24° C., 30 min, pH 7.4. Here is the method: i) Inhibitory activity on binding of ^3 H-iloprost to PGI2 receptor on human blood platelet membrane fraction Method 50 mM Tris-HCl buffer (pH 7.4) containing 15 mM MgCl2, 5 mM EDTA and 10 nM [^3 H]-iloprost were used as reaction medium. To 0.2 ml of the reaction medium, human blood platelet membrane fraction (0.3 mg protein) was added with or without a test compound. The mixture was incubated at 24° C. for 30 min. After incubation, 4 ml of ice-cold 10 mM Tris-HCl buffer (pH 7.4) was added to the reaction mixture, and filtered through Whatman GF/B glass fiber filter, and washed 4 times with 4 ml of ice-cold 10 mM Tris-HCl buffer (pH 7.4) to separate bound and free [^3 H]-iloprost. After washing, the filter was dried and radioactivity was counted. Non-specific binding was obtained by performing parallel binding experiments in the presence of 10 μM non-labelled iloprost. Specific binding was calculated by subtracting the non-specific binding from the total binding. The inhibitory effect of test compound was calculated from the following equation. The percentage of inhibition (%)=100-(B1 /B0 ×100) B1 : specific [^3 H]-iloprost binding in presence of test compound B0 : specific [^3 H]-iloprost binding in absence of test compound

Test [2] deals with human blood platelet aggregation. Briefly: Inhibitory effect on human blood platelet aggregation (ADP-induced, platelet-rich plasma). The following applies: human PRP (5×10^5 platelets/mm^3), test compound 1 min prior to ADP (4 μm). The class given is cell-based. The method, then:
ii) Inhibitory effect on human blood platelet aggregation
Platelet-rich plasma (PRP) was prepared from human blood (5×10^5 platelets/mm^3), and a test compound was added to PRP 1 min prior to the addition of ADP (4 μm). The aggregation was monitored using a platelet aggregometer (NBS HEMA TRACER 601, Niko Bioscience, Japan).

Molecules are shown by their SMILES.

T1 sequence (P43119 whole entry): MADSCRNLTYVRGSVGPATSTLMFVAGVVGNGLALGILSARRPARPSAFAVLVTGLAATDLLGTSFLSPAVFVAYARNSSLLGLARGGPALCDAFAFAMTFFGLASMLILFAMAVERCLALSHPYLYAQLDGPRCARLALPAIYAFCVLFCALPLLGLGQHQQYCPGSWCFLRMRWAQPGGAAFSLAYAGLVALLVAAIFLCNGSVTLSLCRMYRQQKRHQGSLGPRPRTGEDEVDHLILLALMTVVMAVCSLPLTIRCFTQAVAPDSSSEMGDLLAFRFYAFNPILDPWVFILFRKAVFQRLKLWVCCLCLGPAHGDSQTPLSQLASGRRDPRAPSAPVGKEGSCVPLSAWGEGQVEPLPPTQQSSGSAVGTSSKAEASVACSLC

As to `O=C(O)COc1cccc2c1CCC(Cn1cnc(-c3ccccc3)c1-c1ccccc1)C2` (centres unmarked) [2(a), [2-(4,5-Diphenylimidazol-1-yl)methyl-1,2,3,4-tetrahydronaphthalen-5-yloxy]acetic acid], the values for the IC50 in test [1] and in test [2] were 2300 nM and 13000 nM, respectively.
With `O=C(O)COc1cccc2c1CCC(CSc1nc(-c3ccccc3)c(-c3ccccc3)[nH]1)C2` (centres unmarked) [2(c), [2-(4,5-Diphenylimidazol-2-ylthio)methyl-1,2,3,4-tetrahydronaphthalen-5-yloxy] acetic acid], the IC50 – broadly, the concentration that gives 50% inhibition – in test [1] is 3900 nM; in test [2], 12000 nM.
The matching figures for `O=C(O)COc1cccc2c1CCC(COc1nc(-c3ccccc3)c(-c3ccccc3)n1-c1ccccc1)C2` (centres unmarked) [2(d), [2-(1,4,5-Triphenylimidazol-2-yloxy)methyl-1,2,3,4-tetrahydronaphthalen-5-yloxy] acetic acid]: 6800 nM and 20000 nM.
The matching figures for `O=C(O)COc1cccc2c1CCC(Cn1c(-c3ccccc3)c(-c3ccccc3)n(-c3ccccc3)c1=O)C2` (centres unmarked) [2(e), [2-(3,4,5-Triphenyl-2-oxo-2,3-dihydroimidazol-1-yl)methyl-1,2,3,4-tetrahydronaphthalen-5-yloxy] acetic acid]: 2600 nM and 15000 nM.
For `O=C(O)COc1cccc2c1CCC(Cn1cnc(C(c3ccccc3)c3ccccc3)c1)C2` (centres unmarked) [2(g), [2-(4-Diphenylmethylimidazol-1-yl)methyl-1,2,3,4-tetrahydronaphthalen-5-yloxy] acetic acid] the same measures were 350 nM and 300 nM.
`O=C(O)COc1cccc2c1CCC(Cn1ccc(C(c3ccccc3)c3ccccc3)n1)C2` (centres unmarked) [2(h), [2-(3-Diphenylmethylpyrazol-1-yl)methyl-1,2,3,4-tetrahydronaphthalen-5-yloxy] acetic acid] came in with an IC50 in test [1] of 360 nM.
Regarding `O=C(O)COc1cccc2c1CCC(Cn1cc(C(c3ccccc3)c3cccnc3)cn1)C2` (centres unmarked) [2(i), [2-(4-((3-pyridyl)phenylmethyl)pyrazol-1-yl)methyl-1,2,3,4-tetrahydronaphthalen-5-yloxy] acetic acid], the IC50 in test [1] turned out to be 210 nM; in test [2], 150 nM.
On to `O=C(O)COc1cccc2c1CCC(CCSc1nc(-c3ccccc3)c(-c3ccccc3)[nH]1)C2` (centres unmarked) [4(b), [2-(2-(4,5-Diphenylimidazol-2-ylthio)ethyl)-1,2,3,4-tetrahydronaphthalen-5-yloxy] acetic acid], for which the IC50 in test [1] was determined as 5000 nM; in test [2], 11000 nM.
The compound `O=C(O)COc1cccc2c1CCC(CCOc1nc(-c3ccccc3)c(-c3ccccc3)n1-c1ccccc1)C2` (centres unmarked) [4(c), [2-(2-(1,4,5-Triphenylimidazol-2-yloxy)ethyl)-1,2,3,4-tetrahydronaphthalen-5-yloxy] acetic acid] displayed an IC50 in test [1] of 8200 nM.
The same measure, in the same setting: the value for `O=C(O)COc1cccc2c1CCC(CCn1cc(C(c3ccccc3)c3ccccc3)cn1)C2` (centres unmarked) [4(f), [2-(2-(4-Diphenylmethylpyrazol-1-yl)ethyl)-1,2,3,4-tetrahydronaphthalen-5-yloxy] acetic acid] was 1400 nM.
As for `O=C(O)COc1cccc2c1CCCC2CCn1c(-c2ccccc2)c(-c2ccccc2)n(-c2ccccc2)c1=O` (centres unmarked) [6(b), [1-(2-(1,4,5-Triphenyl-2-oxo-2,3-dihydroimidazol-3-yl)ethyl)-1,2,3,4-tetrahydronaphthalen-5-yloxy] acetic acid], the IC50 in test [1] was found to be 4000 nM; in test [2], 16000 nM.
In test [1], `O=C(O)COc1cccc2c1CCCC2CCn1cc(C(c2ccccc2)c2ccccc2)cn1` (centres unmarked) [6(c), [1-(2-(4-Diphenylmethylpyrazol-1-yl)ethyl)-1,2,3,4-tetrahydronaphthalen-5-yloxy] acetic acid] showed an IC50 of 58 nM.
In the case of `O=C(O)COc1cccc2c1CCC(Cc1nc(C(c3ccccc3)c3ccccc3)no1)C2` (centres unmarked) [8(a), [2-(3-Diphenylmethyl-1,2,4-oxadiazol-5-yl)methyl-1,2,3,4-tetrahydronaphthalen-5-yloxy] acetic acid], the values for the IC50 in test [1] and in test [2] were 260 nM and 1000 nM, respectively.
In test [1], `O=C(O)COc1cccc2c1CCC(Cn1cc(C(c3ccccc3)c3cccnc3)cn1)=C2` (centres unmarked) [22(a), [2-(4-((3-Pyridyl)phenylmethyl)pyrazol-1-yl)methyl-3,4-dihydronaphthalen-5-yloxy] acetic acid] showed an IC50 of 160 nM.
`O=C(O)COc1cccc2c1CCC(Cn1cc(C(c3ccccc3)c3ccccc3)cn1)C2` (centres unmarked) [Example 2, [2-(4-Diphenylmethylpyrazol-1-yl)methyl-1,2,3,4-tetrahydronaphthalen-5-yloxy]acetic acid]: the IC50 in test [1] is 43 nM; in test [2], 45 nM.
As to `O=C(O)COc1cccc2c1CCCC2CCn1cnc(-c2ccccc2)c1-c1ccccc1` (centres unmarked) [Example 6, [1-[2-(4,5-Diphenylimidazol-1-yl)ethyl]-1,2,3,4-tetrahydronaphthalen-5-yloxy] acetic acid], in test [1], the IC50 came to 5000 nM.
The compound `O=C(O)COc1cccc2c1CCCC2CCc1nc(C(c2ccccc2)c2ccccc2)no1` (centres unmarked) [Example 8, [1-[2-(3-Diphenylmethyl-1,2,4-oxadiazol-5-yl)ethyl]-1,2,3,4-tetrahydronaphthalen-5-yloxy] acetic acid] yielded an IC50 in test [1] of 2000 nM.
In the case of `O=C(O)COc1cccc2c1CCC(Cc1nc(C(c3ccccc3)c3ccccc3)co1)C2` (centres unmarked) [Example 10, [2-(4-Diphenylmethyloxazol-2-yl)methyl-1,2,3,4-tetrahydronaphthalen-5-yloxy] acetic acid], the IC50 in test [1] was 1800 nM; in test [2], 5100 nM.
For `O=C(O)COc1cccc2c1CCC(Cc1coc(C(c3ccccc3)c3ccccc3)n1)C2` (centres unmarked) [Example 12, [2-(2-Diphenylmethyloxazol-4-yl)methyl-1,2,3,4-tetrahydronaphthalen-5-yloxy] acetic acid] the same measures were 320 nM and 1000 nM.
The matching figures for `CCc1oc(C(c2ccccc2)c2ccccc2)nc1CC1CCc2c(cccc2OCC(=O)O)C1` (centres unmarked) [Example 14, [2-(2-Diphenylmethyl-5-ethyloxazol-4-yl)methyl-1,2,3,4-tetrahydronaphthalen-5-yloxy] acetic acid]: 940 nM and 1600 nM.
Regarding `O=C(O)COc1cccc2c1CCC(Cc1c[nH]c(C(c3ccccc3)c3ccccc3)n1)C2` (centres unmarked) [Example 16, [2-(2-Diphenylmethylimidazol-4-yl)methyl-1,2,3,4-tetrahydronaphthalen-5-yloxy] acetic acid], the IC50 in test [1] was determined as 6800 nM; in test [2] it was 12000 nM.
With `O=C(O)COc1cccc2c1CCC(Cn1cc(C(c3ccccc3)c3ccccc3)cn1)=C2` [Example 22, [2-(4-(Diphenylmethyl)pyrazol-1-yl)methyl-3,4-dihydronaphthalen-5-yloxy] acetic acid], the results for the IC50 in test [1] and in test [2] were 18 nM and 93 nM, respectively.
Consider `O=C(O)COc1cccc2c1CCC(Cn1cc(C(c3ccccc3)n3ccnc3)cn1)C2` (centres unmarked) [Example 24, [2-(4-((1-Imidazolyl)phenylmethyl)pyrazol-1-yl)methyl-1,2,3,4-tetrahydronaphthalen-5-yloxy] acetic acid], for which the IC50 in test [1] came to 8000 nM.

The values are drawn from patent US5589496A, “Fused benzeneoxyacetic acid derivatives which have PGI2 receptor agonist activity” (Ono Pharmaceutical Co., Ltd., priority 1991, dated 1996).
